Assay results published in the supplement of paper PMC13380429.
Where a name gives a salt, the structure may show the parent alone.

How the values were obtained:
Settings in all cases: 72 h
[1] = system: Caco-2; experiment: cell viability relative to DMSO; higher = less toxic
[2] = system: Calu-3; experiment: as above
[3] = system: HepG2; experiment: as above
[4] = system: U2OS; experiment: as above
[5] = system: Vero E6; experiment: as above
[6] = system: Caco-2; experiment: relative viability EC50 (midpoint between 100% and the lowest measured viability); higher = less toxic
[7] = system: Calu-3; experiment: as above
[8] = system: U2OS; experiment: as above
[9] = system: Vero E6; experiment: as above
[10] = system: Caco-2; experiment: drug sensitivity score (DSS) for viability; higher = more toxic; extreme values may be limits of the assay
[11] = system: Calu-3; experiment: as above
[12] = system: HepG2; experiment: as above
[13] = system: U2OS; experiment: as above
[14] = system: Vero E6; experiment: as above
[15] = system: HepG2; experiment: relative viability EC50 (midpoint between 100% and the lowest measured viability); higher = less toxic

Row | SMILES | cell viability ([1]; 1 nM) [%] | cell viability ([1]; 10 nM) [%] | cell viability ([1]; 100 nM) [%] | cell viability ([1]; 1000 nM) [%] | cell viability ([1]; 10000 nM) [%] | cell viability ([2]; 1 nM) [%] | cell viability ([2]; 10 nM) [%] | cell viability ([2]; 100 nM) [%] | cell viability ([2]; 1000 nM) [%] | cell viability ([2]; 10000 nM) [%] | cell viability ([3]; 1 nM) [%] | cell viability ([3]; 10 nM) [%] | cell viability ([3]; 100 nM) [%] | cell viability ([3]; 1000 nM) [%] | cell viability ([3]; 10000 nM) [%] | cell viability ([4]; 1 nM) [%] | cell viability ([4]; 10 nM) [%] | cell viability ([4]; 100 nM) [%] | cell viability ([4]; 1000 nM) [%] | cell viability ([4]; 10000 nM) [%] | cell viability ([5]; 1 nM) [%] | cell viability ([5]; 10 nM) [%] | cell viability ([5]; 100 nM) [%] | cell viability ([5]; 1000 nM) [%] | cell viability ([5]; 10000 nM) [%] | relative viability EC50 [6] [µM] | relative viability EC50 [7] [µM] | relative viability EC50 [8] [µM] | relative viability EC50 [9] [µM] | drug sensitivity score [10] | drug sensitivity score [11] | drug sensitivity score [12] | drug sensitivity score [13] | drug sensitivity score [14] | relative viability EC50 [15] [µM]
1 | O=c1ccc2ccc(OCCCCN3CCN(c4cccc5sccc45)CC3)cc2[nH]1 [brexpiprazole] | 91.7 | 96.7 | 87.3 | 98.1 | 87.5 | 95.5 | 85 | 96 | 91.6 | 104 | 100 | 96.3 | 96 | 92 | 56.8 | 97.6 | 99 | 95.6 | 101 | 86.6 | 99.1 | 97.5 | 94.5 | 94.5 | 94.3 | > 10 | > 10 | > 10 | > 10 | 0 | 0 | 3.5 | 0.1 | 0 | 
2 | CCCCc1nn(-c2ccccc2C(F)(F)F)c(=O)n1Cc1ccc(-c2ccccc2S(=O)(=O)NC(=O)c2sccc2C)cc1 | 98.6 | 110 | 102 | 100 | 94.1 | 107 | 99.2 | 108 | 106 | 109 | 98.8 | 115 | 111 | 108 | 102 |  |  |  |  |  | 104 | 106 | 102 | 96.8 | 104 | > 10 | > 10 |  | > 10 | 0 | 0 | 0 |  | 0 | > 10
3 | CC1=C(CC(=O)O)c2cc(F)ccc2/C1=C\c1ccc(S(C)(=O)=O)cc1 [exisulind] | 96.4 | 104 | 91.6 | 84.6 | 94.8 | 95.6 | 102 | 103 | 97.6 | 112 | 106 | 95.3 | 95.4 | 96.7 | 74.8 | 103 | 94.7 | 100 | 97.5 | 100 | 104 | 96.2 | 87.8 | 110 | 94.8 | > 10 | > 10 | > 10 | > 10 | 2.2 | 0 | 1.5 | 0 | 0 | 
4 | C[C@@H](c1nc(-c2ccc(C#N)cc2)cs1)[C@](O)(Cn1cncn1)c1cc(F)ccc1F [isavuconazole] | 96.3 | 99.8 | 96 | 93.9 | 74.3 | 95.7 | 90.1 | 98.7 | 101 | 99.2 | 106 | 96 | 93.8 | 100 | 79.2 | 98.2 | 102 | 93.9 | 101 | 90.9 | 100 | 98 | 102 | 98.6 | 100 |  | > 10 | > 10 | > 10 | 1.8 | 0 | 0.6 | 0 | 0 | > 10
5 | CN(C)C(=O)COC(=O)Cc1ccc(OC(=O)c2ccc(NC(=N)N)cc2)cc1 [Camostat mesylate] |  |  |  |  |  | 99.8 | 97.1 | 104 | 91 | 97 | 102 | 96.2 | 97 | 100 | 103 | 104 | 107 | 97.4 | 100 | 99.4 | 95.9 | 105 | 88.8 | 102 | 100 |  | > 10 | > 10 | > 10 |  | 0 | 0 | 0 | 0 | > 10
6 | CCOc1cc2ncc(C#N)c(Nc3ccc(F)c(Cl)c3)c2cc1NC(=O)/C=C/CN(C)C [pelitinib] | 96.9 | 96.9 | 85.8 | 64.7 | 51.2 | 88.1 | 83 | 45 | 32 | 9.5 | 107 | 99.5 | 99 | 59.7 | 40.2 | 99 | 98.9 | 93.6 | 67.7 | 5.3 | 106 | 96.4 | 87.3 | 22.6 | 7.9 |  | 0.0707 | 1.38 | 0.334 | 7.9 | 21.7 | 8.1 | 9.3 | 15.9 | 0.706
7 | CCCCN(CC)c1nc(C)nc2c1c(C)c(C)n2-c1c(C)cc(C)cc1C [antalarmin] | 105 | 92.9 | 102 | 91.4 | 70.3 | 102 | 94.4 | 95.6 | 99 | 104 | 99 | 97.2 | 97.4 | 97.8 | 77.2 | 107 | 98.8 | 98.1 | 99 | 101 | 96 | 92.6 | 97.3 | 101 | 98.2 |  | > 10 | > 10 | > 10 | 2.5 | 0 | 1.1 | 0 | 0 | > 10
